# Source: article PMC8708872, “Discovery of a Novel Template, 7-Substituted 7-Deaza-4′-Thioadenosine Derivatives as Multi-Kinase Inhibitors” (Pharmaceuticals, 2021)
# Columns and labels:
# cancer cells = assay: Antiproliferative activity against cancer cells (six lines, SRB); format: cell-based; conditions: Homo sapiens; range over the six cancer cell lines of Table 1
# Experimental: Human lung cancer cells (A549), colorectal cancer (HCT116) cells, breast cancer cells (MDA-MB-231), liver cancer cells (SK-HEP-1), and prostate cancer cells (PC-3) were purchased from the American Type Culture Collection (Manassas, VA, USA). Human gastric cancer cells (SNU-638) were purchased from the Korean Cell Line Bank (Seoul, Korea). Cells were cultured in medium (Dulbecco’s modified Eagle’s medium for MDA-MB-231 and SK-HEP-1 cells; Roswell Park Memorial Institute 1640 for A549, HCT116, SNU-638, PC-3 cells) supplemented with penicillin-streptomycin and 10% fetal bovine serum at 37 °C in a humidified incubator with 5% carbon dioxide. Cells were seeded at a density of 4–7 × 10^4 cells/mL in 96-well culture plates, and then treated with indicated compounds for 72 h. At the end of the experiment, cells were fixed with 10% trichloroacetic acid (TCA) solution and subjected to sulforhodamine B (SRB) assay to determine cell proliferation. The percentage of cell proliferation was calculated with the following formula:Cell proliferation (%) = 100 × [(A treated − A zero day)/(A control − A zero day)], where A is the average absorbance. The IC50 values were calculated through non-linear regression analysis using TableCurve 2D v5.01 (Systat Software Inc., San Jose, CA, USA). All experiments were performed in triplicate and data shown are representative of two or three independent experiments.
# CDK11 = molecular target: T1, CDK11 (Homo sapiens, UniProt Q9BWU1); assay: Kinome scan; format: binding; conditions: 1000 nM
# T1 construct: purchased Eurofins DiscoverX Corporation
# Experimental: (§1) The kinome scan assays were carried out at Eurofins DiscoverX Corporation. For kinome scan profiling of compound 1g, it was screened at 1μM against 96 kinases (N = 2 independent experiments). The results for binding interactions are reported as % inhibition, where higher values indicate strong affinity; see the Supporting Information, Table S1 for full kinome profile.
# SRC = molecular target: T2, SRC (Homo sapiens, UniProt P12931); assay: Kinome scan; format: binding; conditions: 1000 nM
# T2 construct: purchased Eurofins DiscoverX Corporation
# T2 sequence (P12931 whole entry): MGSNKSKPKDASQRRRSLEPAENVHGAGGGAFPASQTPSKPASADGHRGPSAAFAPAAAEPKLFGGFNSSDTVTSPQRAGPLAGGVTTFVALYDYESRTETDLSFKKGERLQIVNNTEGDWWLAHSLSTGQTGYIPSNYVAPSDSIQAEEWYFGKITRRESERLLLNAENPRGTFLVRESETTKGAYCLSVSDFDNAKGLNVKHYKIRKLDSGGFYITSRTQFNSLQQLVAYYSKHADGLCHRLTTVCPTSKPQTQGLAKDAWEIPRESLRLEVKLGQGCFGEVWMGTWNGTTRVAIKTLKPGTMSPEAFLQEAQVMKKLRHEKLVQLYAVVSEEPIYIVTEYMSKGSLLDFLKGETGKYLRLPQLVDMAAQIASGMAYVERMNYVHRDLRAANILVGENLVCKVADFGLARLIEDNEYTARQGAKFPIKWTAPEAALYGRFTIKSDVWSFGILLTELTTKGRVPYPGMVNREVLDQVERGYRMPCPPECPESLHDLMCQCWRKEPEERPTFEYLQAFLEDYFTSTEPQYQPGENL
# Experimental: as §1
# PIM3 = molecular target: T3, PIM3 (Homo sapiens, UniProt Q86V86); assay: Kinome scan; format: binding; conditions: 1000 nM
# T3 construct: purchased Eurofins DiscoverX Corporation
# Experimental: as §1
# BMPR2 = molecular target: T4, BMPR2 (Homo sapiens, UniProt Q13873); assay: Kinome scan; format: binding; conditions: 1000 nM
# T4 construct: purchased Eurofins DiscoverX Corporation
# Experimental: as §1
# CSNK1D = molecular target: T5, CSNK1D (Homo sapiens, UniProt P48730); assay: Kinome scan; format: binding
# T5 construct: purchased Eurofins DiscoverX Corporation
# T5 sequence (P48730 whole entry): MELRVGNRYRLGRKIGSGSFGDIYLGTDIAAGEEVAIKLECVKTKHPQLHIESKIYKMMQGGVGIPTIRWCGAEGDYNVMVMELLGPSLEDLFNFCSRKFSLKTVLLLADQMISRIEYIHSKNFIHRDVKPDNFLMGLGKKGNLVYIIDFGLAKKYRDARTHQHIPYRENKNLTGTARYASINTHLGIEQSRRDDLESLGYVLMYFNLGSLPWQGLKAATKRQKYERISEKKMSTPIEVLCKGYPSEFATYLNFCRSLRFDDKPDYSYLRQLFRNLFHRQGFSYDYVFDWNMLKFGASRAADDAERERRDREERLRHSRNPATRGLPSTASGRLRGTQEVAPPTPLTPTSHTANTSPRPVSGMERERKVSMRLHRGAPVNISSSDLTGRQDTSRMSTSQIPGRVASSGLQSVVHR
# Experimental: as §1
# RIOK2 = molecular target: T6, RIOK2 (Homo sapiens, UniProt Q9BVS4); assay: Kinome scan; format: binding; conditions: 1000 nM
# T6 construct: purchased Eurofins DiscoverX Corporation
# Experimental: as §1
# TSSK1B = molecular target: T7, TSSK1B (Homo sapiens, UniProt Q9BXA7); assay: Kinome scan; format: binding; conditions: 1000 nM
# T7 construct: purchased Eurofins DiscoverX Corporation
# Experimental: as §1
# MKNK2 = molecular target: T8, MKNK2 (Homo sapiens, UniProt Q9HBH9); assay: Kinome scan; format: binding; conditions: 1000 nM
# T8 construct: purchased Eurofins DiscoverX Corporation
# Experimental: as §1
# ALK = molecular target: T9, ALK (Homo sapiens, UniProt Q9UM73); assay: Kinome scan; format: binding; conditions: 1000 nM
# T9 construct: purchased Eurofins DiscoverX Corporation
# Experimental: as §1
# TGFBR1 = molecular target: T10, TGFBR1 (Homo sapiens, UniProt P36897); assay: Kinome scan; format: binding; conditions: 1000 nM
# T10 construct: purchased Eurofins DiscoverX Corporation
# Experimental: as §1
# TIE2 = molecular target: T11, TIE2 (Homo sapiens, UniProt Q02763); assay: Kinome scan; format: binding; conditions: 1000 nM
# T11 construct: purchased Eurofins DiscoverX Corporation
# T11 sequence (Q02763 23-1124): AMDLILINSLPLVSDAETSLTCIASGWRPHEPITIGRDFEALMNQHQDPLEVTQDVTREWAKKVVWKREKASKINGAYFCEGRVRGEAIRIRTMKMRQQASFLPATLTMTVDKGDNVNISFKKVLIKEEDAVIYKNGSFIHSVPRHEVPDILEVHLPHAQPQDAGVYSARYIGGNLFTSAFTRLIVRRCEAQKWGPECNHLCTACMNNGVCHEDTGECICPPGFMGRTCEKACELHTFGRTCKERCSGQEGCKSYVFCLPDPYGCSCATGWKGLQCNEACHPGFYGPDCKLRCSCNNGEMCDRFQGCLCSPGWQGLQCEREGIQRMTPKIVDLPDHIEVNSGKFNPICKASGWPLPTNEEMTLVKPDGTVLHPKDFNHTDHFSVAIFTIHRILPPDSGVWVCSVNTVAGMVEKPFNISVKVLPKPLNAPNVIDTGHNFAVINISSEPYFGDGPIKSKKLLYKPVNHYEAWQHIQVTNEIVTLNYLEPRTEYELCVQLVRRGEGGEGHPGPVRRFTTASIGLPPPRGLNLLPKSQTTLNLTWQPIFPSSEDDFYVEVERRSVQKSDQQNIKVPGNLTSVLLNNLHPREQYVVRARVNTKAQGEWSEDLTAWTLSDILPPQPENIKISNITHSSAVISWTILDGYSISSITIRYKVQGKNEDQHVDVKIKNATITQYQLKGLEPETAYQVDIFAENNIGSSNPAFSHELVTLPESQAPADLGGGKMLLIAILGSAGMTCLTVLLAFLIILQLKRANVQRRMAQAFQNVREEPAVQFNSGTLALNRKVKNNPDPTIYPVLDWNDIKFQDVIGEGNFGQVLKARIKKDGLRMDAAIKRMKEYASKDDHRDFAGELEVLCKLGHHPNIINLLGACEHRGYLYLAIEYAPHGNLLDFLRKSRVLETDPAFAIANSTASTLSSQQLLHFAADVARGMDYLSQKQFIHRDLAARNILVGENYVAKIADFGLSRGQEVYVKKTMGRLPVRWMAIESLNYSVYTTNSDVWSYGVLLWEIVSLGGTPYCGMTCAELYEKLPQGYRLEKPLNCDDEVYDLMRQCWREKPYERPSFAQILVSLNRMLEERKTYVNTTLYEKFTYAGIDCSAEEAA
# Experimental: as §1
# BRAF(V600E) = molecular target: T12, BRAF(V600E) (Homo sapiens, UniProt P15056, V600E); assay: Kinome scan; format: binding; conditions: 1000 nM
# T12 construct: purchased Eurofins DiscoverX Corporation
# Experimental: as §1
# CDK3 = molecular target: T13, CDK3 (Homo sapiens, UniProt Q00526); assay: Kinome scan; format: binding; conditions: 1000 nM
# T13 construct: purchased Eurofins DiscoverX Corporation
# Experimental: as §1
# PDGFRB = molecular target: T14, PDGFRB (Homo sapiens, UniProt P09619); assay: Kinome scan; format: binding; conditions: 1000 nM
# T14 construct: purchased Eurofins DiscoverX Corporation
# Experimental: as §1
# TRKA = molecular target: T15, TRKA (Homo sapiens, UniProt P04629); assay: Kinase inhibition profile, KINOMEscan 11-point dose response; format: binding
# T15 construct: purchased Eurofins DiscoverX Corporation
# T15 sequence (P04629 33-796): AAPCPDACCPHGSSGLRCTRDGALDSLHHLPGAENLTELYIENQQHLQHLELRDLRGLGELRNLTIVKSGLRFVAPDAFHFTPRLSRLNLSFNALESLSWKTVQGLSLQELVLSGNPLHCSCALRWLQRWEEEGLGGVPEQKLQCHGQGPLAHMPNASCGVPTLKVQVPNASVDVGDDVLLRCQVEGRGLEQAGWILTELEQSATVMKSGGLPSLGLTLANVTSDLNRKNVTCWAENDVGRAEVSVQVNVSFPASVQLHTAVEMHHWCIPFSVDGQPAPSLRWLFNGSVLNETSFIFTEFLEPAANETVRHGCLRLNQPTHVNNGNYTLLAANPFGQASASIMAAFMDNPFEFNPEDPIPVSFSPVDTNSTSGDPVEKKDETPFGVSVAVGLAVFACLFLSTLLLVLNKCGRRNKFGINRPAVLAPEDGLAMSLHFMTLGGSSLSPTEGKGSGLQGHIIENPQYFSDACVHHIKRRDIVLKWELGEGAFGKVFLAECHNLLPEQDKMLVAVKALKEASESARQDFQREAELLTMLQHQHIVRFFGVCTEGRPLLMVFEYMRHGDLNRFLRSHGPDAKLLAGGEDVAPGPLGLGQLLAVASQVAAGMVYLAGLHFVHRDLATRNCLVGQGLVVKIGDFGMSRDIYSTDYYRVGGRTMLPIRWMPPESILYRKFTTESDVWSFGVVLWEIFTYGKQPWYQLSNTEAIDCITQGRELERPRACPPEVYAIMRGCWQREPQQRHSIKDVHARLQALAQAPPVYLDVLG
# [1] = Metabolic stability in human liver microsomes; format: in vitro ADME; conditions: % remaining during 30 min, 1 μM
# CYP3A4 = molecular target: T16, CYP3A4 (Homo sapiens, UniProt P08684); assay: CYP inhibition assay; format: in vitro ADME; conditions: human liver microsomes
# T16 construct: Human liver microsomes (0.25 mg/mL); from tissue; host or cells: human liver microsomes
# T16 sequence (P08684 whole entry): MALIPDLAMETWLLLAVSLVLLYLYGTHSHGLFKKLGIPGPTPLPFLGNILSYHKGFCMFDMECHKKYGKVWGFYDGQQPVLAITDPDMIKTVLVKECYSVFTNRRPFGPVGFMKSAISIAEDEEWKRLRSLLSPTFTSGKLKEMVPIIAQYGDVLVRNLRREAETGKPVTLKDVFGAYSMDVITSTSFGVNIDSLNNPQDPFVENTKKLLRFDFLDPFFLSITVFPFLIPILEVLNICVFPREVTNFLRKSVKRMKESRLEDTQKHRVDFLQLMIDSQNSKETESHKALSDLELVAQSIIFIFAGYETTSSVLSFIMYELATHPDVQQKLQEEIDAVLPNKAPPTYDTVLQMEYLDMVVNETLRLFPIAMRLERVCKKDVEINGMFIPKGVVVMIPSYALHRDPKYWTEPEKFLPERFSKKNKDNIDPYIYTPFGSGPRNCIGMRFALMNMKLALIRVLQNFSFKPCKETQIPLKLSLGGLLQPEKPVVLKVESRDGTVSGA
# CK1δ = molecular target: T17, CK1δ (Homo sapiens, UniProt P48730); assay: Kinase inhibition profile, KINOMEscan 11-point dose response; format: binding
# T17 construct: purchased Eurofins DiscoverX Corporation
# T17 sequence (P48730 whole entry): as the sequence (P48730 whole entry) above
# [2] = tested on: human normal dermal fibroblast cells; assay: Antiproliferative activity against normal cells; format: cell-based; conditions: cultured human normal primary dermal fibroblast cells; read-out: IC50 growth inhibition, normal dermal fibroblast cells
# CYP2C19 = molecular target: T18, CYP2C19 (Homo sapiens, UniProt P33261); assay: CYP inhibition assay; format: in vitro ADME; conditions: human liver microsomes
# T18 construct: Human liver microsomes (0.25 mg/mL); from tissue; host or cells: human liver microsomes
# Experimental: (§2) Human liver microsomes (0.25 mg/mL), 0.1 M phosphate buffer (pH 7.4), a cocktail of five […] substrates (Phenacetin 50 μM, Diclofenac 10 μM, S-mephenytoin 100 μM, Dextromethorphan 5 μM, Midazolam 2.5 μM), and test compound (10 μM concentration) was pre-incubated for 5 min at 37 °C. NADPH generation system solution was added and incubated for 15 min at 37 °C. In order to terminate the reaction, acetonitrile solution containing an internal standard (Terfenadine) was added and centrifuged for 5 min (14,000× g […], 4 °C). The supernatant was injected into the LC-MS/MS system to analyze the metabolites of the substrates simultaneously. Metabolites of each substrate produced during the reaction were analyzed using the Shimadzu Nexera XR system and TSQ vantage (Thermo). Kinetex C18 column (2.1 × 100 mm, 2.6 μm particle size; Phenomenex, USA) was used for HPLC. The mobile phase used contained 0.1% formic acid in distilled water (A) and 0.1% formic acid containing acetonitrile (B). The generated metabolites were quantified using MRM (Multiple Reaction Monitoring) and Xcalibur (version 1.6.1) was used for data analysis.
# CYP1A2 = molecular target: T19, CYP1A2 (Homo sapiens, UniProt P05177); assay: CYP inhibition assay; format: in vitro ADME; conditions: human liver microsomes
# T19 construct: Human liver microsomes (0.25 mg/mL); from tissue; host or cells: human liver microsomes
# T19 sequence (P05177 whole entry): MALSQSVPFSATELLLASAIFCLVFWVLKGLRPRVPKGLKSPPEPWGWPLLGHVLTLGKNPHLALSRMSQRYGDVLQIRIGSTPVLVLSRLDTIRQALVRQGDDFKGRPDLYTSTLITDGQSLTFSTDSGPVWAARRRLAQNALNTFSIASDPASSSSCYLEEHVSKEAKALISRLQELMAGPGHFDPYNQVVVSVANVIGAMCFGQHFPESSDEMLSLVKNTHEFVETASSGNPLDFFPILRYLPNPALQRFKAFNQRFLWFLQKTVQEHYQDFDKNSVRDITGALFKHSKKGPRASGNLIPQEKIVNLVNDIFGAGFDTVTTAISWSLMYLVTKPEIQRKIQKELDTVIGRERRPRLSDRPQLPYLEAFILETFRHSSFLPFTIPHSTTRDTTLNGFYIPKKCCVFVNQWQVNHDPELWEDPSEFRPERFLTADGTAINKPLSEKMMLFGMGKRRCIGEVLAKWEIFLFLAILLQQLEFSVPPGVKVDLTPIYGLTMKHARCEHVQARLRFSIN
# Experimental: as §2
# CYP2C9 = molecular target: T20, CYP2C9 (Homo sapiens, UniProt P11712); assay: CYP inhibition assay; format: in vitro ADME; conditions: human liver microsomes
# T20 construct: Human liver microsomes (0.25 mg/mL); from tissue; host or cells: human liver microsomes
# T20 sequence (P11712 whole entry): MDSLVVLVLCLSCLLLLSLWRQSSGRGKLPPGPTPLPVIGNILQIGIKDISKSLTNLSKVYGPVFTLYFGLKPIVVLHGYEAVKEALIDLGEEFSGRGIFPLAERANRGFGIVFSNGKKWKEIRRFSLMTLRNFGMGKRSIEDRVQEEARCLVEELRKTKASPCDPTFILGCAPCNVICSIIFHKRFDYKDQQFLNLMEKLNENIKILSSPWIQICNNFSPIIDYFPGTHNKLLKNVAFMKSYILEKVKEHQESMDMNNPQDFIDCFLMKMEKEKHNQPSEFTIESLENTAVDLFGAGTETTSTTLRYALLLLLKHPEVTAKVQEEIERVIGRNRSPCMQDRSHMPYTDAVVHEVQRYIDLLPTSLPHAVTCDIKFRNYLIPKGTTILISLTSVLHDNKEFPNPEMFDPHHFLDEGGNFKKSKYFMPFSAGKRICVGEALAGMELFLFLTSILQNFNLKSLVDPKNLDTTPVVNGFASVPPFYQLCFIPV
# Experimental: as §2
# KM12 = assay: Antiproliferative activity against KM12; format: cell-based; conditions: Homo sapiens, colon cancer cell line highly expressing NTRK1/2/3 and DYRK3, read-out: IC50 cell growth of KM12
# DYRK1B = molecular target: T21, DYRK1B (Homo sapiens, UniProt Q9Y463); assay: Kinase inhibition profile, KINOMEscan 11-point dose response; format: binding
# T21 construct: purchased Eurofins DiscoverX Corporation
# T21 sequence (Q9Y463 whole entry): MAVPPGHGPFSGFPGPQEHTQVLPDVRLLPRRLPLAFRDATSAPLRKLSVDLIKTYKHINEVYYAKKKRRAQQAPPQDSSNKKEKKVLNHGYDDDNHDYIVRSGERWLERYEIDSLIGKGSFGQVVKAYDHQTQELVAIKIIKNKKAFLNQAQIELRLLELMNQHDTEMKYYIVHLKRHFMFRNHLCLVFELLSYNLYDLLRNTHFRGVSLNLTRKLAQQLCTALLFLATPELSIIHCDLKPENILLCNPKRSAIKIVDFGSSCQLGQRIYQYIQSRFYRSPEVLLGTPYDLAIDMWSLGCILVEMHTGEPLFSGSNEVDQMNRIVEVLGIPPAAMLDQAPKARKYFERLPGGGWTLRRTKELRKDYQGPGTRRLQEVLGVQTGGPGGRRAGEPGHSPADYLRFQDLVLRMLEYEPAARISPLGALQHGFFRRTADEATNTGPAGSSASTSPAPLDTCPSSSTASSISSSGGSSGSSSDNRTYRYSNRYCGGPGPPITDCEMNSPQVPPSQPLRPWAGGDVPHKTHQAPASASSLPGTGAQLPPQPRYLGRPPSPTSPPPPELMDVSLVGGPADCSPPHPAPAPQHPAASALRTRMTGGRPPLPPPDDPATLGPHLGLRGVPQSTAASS
# [3] = 11-point 3-fold serial dilution
compound,measurement,setting,value
"C#Cc1cn([C@@H]2S[C@H](CO)[C@@H](O)[C@H]2O)c2ncnc(N)c12 [Compound 1g, (2R,3R,4S,5R)-2-(4-Amino-5-ethynyl-7H-pyrrolo[2,3-d]pyrimidin-7-yl)-5-(hydroxymethyl)tetrahydrothiophene-3,4-diol]",IC50,cancer cells,0.004 to 0.06 µM
same,inhibition at 1 µM,CDK11,72.1%
same,inhibition at 1 µM,SRC,6%
same,inhibition at 1 µM,PIM3,25%
same,inhibition at 1 µM,BMPR2,1%
same,remaining binding at 1 µM,"CSNK1D; 1 μM, read-out: activity remaining, CK1δ (CSNK1D)",< 20%
same,inhibition at 1 µM,"CSNK1D; 1000 nM, CSNK1D",91.3%
same,inhibition at 1 µM,RIOK2,0%
same,inhibition at 1 µM,TSSK1B,16%
same,inhibition at 1 µM,MKNK2,62%
same,inhibition at 1 µM,ALK,31%
same,inhibition at 1 µM,TGFBR1,11%
same,inhibition at 1 µM,TIE2,6%
same,inhibition at 1 µM,BRAF(V600E),0%
same,inhibition at 1 µM,CDK3,18%
same,inhibition at 1 µM,PDGFRB,8%
same,IC50,TRKA; [3],0.148 µM
same,Ki,TRKA; by Cheng-Prusoff equation,0.296 µM
same,Metabolic Stability (%),[1],82.3%
same,IC50,CYP3A4,> 20 µM
same,IC50,CK1δ; [3],0.08 µM
same,Ki,CK1δ; by Cheng-Prusoff equation,0.08 µM
same,IC50,[2],0.15 µM
same,IC50,CYP2C19,> 20 µM
same,IC50,CYP1A2,> 20 µM
same,IC50,CYP2C9,> 20 µM
same,IC50,KM12,0.07 µM
same,IC50,DYRK1B; [3],0.033 µM
same,Ki,DYRK1B; by Cheng-Prusoff equation,0.033 µM
